A melting point compilation (Tetko et al.; mined from patent text by program, amines drawn as free bases though some values may be those of a salt)

SMILES	melting point [°C]
Cc1ccc(C(=S)c2ccc(F)cc2)cc1	88
Cn1cc(-c2ccc(C(=O)N3Cc4cccn4Cc4ccccc43)c(Cl)c2)cn1	105 to 109
O=C1C(=O)c2ccc(-c3ccccc3C(F)(F)F)cc2C2=C1SCC1(CCNCC1)O2	125 to 127
Cc1c(-c2ccc(Cl)c(F)c2)sc2nc(N)[nH]c(=O)c12	350 to 370
CON=Cc1ccc2c(c1)ncn2-c1cccc(-n2ccnc2)c1	197 to 199
CCOC(=O)c1cnn2c1nc(OCC)c1cnc3c(cnn3CC)c12	167 to 168
CSC1C(=O)Nc2ccc(-c3ccccc3)cc21 (centres undefined)	170 to 172
O=C(/C=C/C=C/c1cccc2ccccc12)NCCCCCC(=O)NO	143 to 145
O=C(O)c1ccc(-c2csc(-c3ccccc3)n2)cc1	245 to 248
O=C(O)C(=O)CC(=O)c1ccc(OCc2ccccc2)cc1OCc1ccccc1	160 to 164
O=S(=O)(Nc1ccc2oncc2c1)c1cc(Cl)ccc1Cl	173 to 174
C=CC1C2OCC(O2)C(OCc2ccccc2)C1O (centres undefined)	88 to 91
COC(=O)CS(=O)(=O)C(C)c1ccc(-c2ccccc2)cc1 (centres undefined)	79 to 80
O=C(NNC(=O)c1ccccc1C(F)(F)F)c1ccccc1Cl	81.5 to 82.5
Cc1nnc(S(=O)c2c(C)cccc2C)o1 (centres undefined)	79 to 80
c1ccc2c(c1)C[C@H]1CSC(=Nc3cnccn3)N1C2	140
CCCCCCCCOC(=O)CCc1cc(-n2nc3ccc(S(=O)(=O)c4ccccc4)cc3n2)c(O)c(C(C)(C)C)c1	62 to 63
COc1cc(-c2n[nH]c(N=C(c3ccccc3)c3ccccc3)n2)c(OC)cc1C	228
O=C1CN2CCC(CC2)N1	121 to 122
COc1cccc(Nc2cccc3c2C(=O)N(C2CCC(=O)NC2=O)C3=O)c1 (centres undefined)	210 to 212
CCCOc1c(-c2ccccc2)n[nH]c1-c1ccccc1	132

SMILES	melting point [°C]
COc1nc(N)nc2c1ncn2CCC(CO)CO	84 to 86
COc1cc(Oc2cccc3c2NC(=O)C3)cc(OC)c1OC	170 to 171
Cn1c(=O)c([N+](=O)[O-])c(O)c2ccccc21	193
CCC(C)c1cc(C=O)c(O)c(S(C)(=O)=O)c1 (centres undefined)	68 to 70
C#Cc1ccc(Br)c(C(F)(F)F)c1	< 50
O=C(O)c1cccc2ccc(-c3ccccc3)nc12	159 to 161
Cc1ccc(C(C)N2C(=O)c3ccccc3C2=O)cc1 (centres undefined)	65 to 66
COc1ccc(Nc2nccc(-c3ccncc3)n2)cc1	174 to 175
Cc1noc(-c2ccccc2)c1/C=C/C(=O)O	173 to 174
CCOCc1nc2c(N)nc3cccnc3c2n1Cc1ccccc1	173 to 174
CC1(S(=O)(=O)N2C[C@@H](Cl)C[C@@H]2CCl)C=CC=CC1 (some centres undefined)	103 to 105
COc1cc(C2OCCO2)cc(I)c1O	120 to 121
C1=C(COc2ccccc2)CCN(Cc2c[nH]c3ccccc23)C1	140 to 142
NS(=O)(=O)c1ccc(-n2nc(C(F)F)cc2-c2nc3ccc(Cl)cc3s2)cc1	242 to 244
CCOC(=O)/C=C/c1nc(COc2ccc(COc3nn(-c4ccccc4)cc3/C=C/P(=O)(OCC)OCC)cc2OC)c(C)o1	130 to 131
CCC(=Cc1cccc([N+](=O)[O-])c1)C(=O)Oc1ccc(OC)cc1	65 to 66
O=Cc1cccn2ccnc12	137 to 139
COc1nc(NCn2nnc3ccccc32)nc(N(C)C)n1	222 to 224
CC(C)CC(NC(=O)Cc1ccc2ccccc2c1)C(=O)NC(Cc1ccccc1)C(=O)CSCc1ccco1 (centres undefined)	123 to 125
COC(=O)CCCCCCCCCCCCCCCCCCCCCc1c(C)cc(OC)c(OC)c1O	71 to 72.5

Other lines, results leading:

melting point [°C]	SMILES
170 to 172	c1ccc(-c2nc3ccc(NCCCN4CCC(OC(c5ccccc5)c5ccccc5)CC4)nn3n2)cc1
75 to 76.5	Cc1ccc(CC(=O)CCCC(=O)O)c(C)c1
153 to 157	CCCCOC(=O)n1nc(-c2cc(Cl)c(C)c(Cl)c2)ccc1=O
244 to 247	CCOc1cc(-c2ccc3c(c2)C=C(C(=O)Nc2ccc(CN(C)C4CCOCC4)cc2)CCS3(=O)=O)ccc1C#N
93 to 94	CCOC(=O)c1c(C)[nH]c2ccc(OCC3CO3)cc12 (centres undefined)
214 to 216	CCc1cc(C(C)=O)c(O)cc1OCc1ccc(C(=O)O)c(O)c1
160 to 161	CC(C)(C)c1ccc(C#N)cc1NC(=O)NCc1ccccc1
159 to 160	C#CCc1c(C)nc2c(OCc3c(C)cccc3NC(=S)NC(=O)c3ccccc3)cccn12
201	CC(C)(O)C(=O)N[C@H]1CC[C@H](CCN2CCN(c3nccc4c3CCO4)CC2)CC1
148 to 149	CCOC(=O)C1=C(C)NC(C)=C(C(=O)OCC)C1c1ccc(Cl)cc1Cl
160 to 161	N#CCCNC(=O)C1=C(C(=O)Nc2ccc(Cl)cc2F)CCCC1
202 to 204	COc1c(C)c(C)c(OC)c(CN2C(=O)C3CCCC3=Nc3ccccc32)c1C (centres undefined)
124 to 125	CCCC(=O)c1cc2c(c(Cl)c1Cl)OC(C(=O)O)C2 (centres undefined)
35 to 36	C#CCN1CC[C@H](O[Si](C)(C)C(C)(C)C)C1=O
90 to 93	CC(=O)CCCN1C(=O)c2ccccc2S1(=O)=O
208	O=C(NCCCCN1CCCC1)Nc1snc(OCc2c(F)cc(Br)cc2F)c1C(=O)O
222	Cn1nc(Sc2ccc(C(=O)O)c(Cl)c2)n(C)c1=O

melting point [°C]	SMILES
92 to 93	CCOC(=O)N1CCN(Cc2ccc(O)c3ncccc23)CC1
234	O=C(Nc1cc(C2CC2)n[nH]1)c1ccccc1
92 to 94	CN1CC(CCCl)Oc2ccc(Br)cc2C1=O (centres undefined)
224 to 226	COC(=O)/C=C/n1cnc2c(OC)cc(OC)cc2c1=O
181	CC(C)(O)CCOc1c(-c2ccc(S(N)(=O)=O)cc2)cnn(-c2ccc(F)c(F)c2)c1=O
144 to 146	COCCN1CCN(c2ccc(N3C[C@H](CNC(C)=O)OC3=O)cc2F)CC1
161 to 162	Fc1cccc2[nH]cc(C3CCC4(CC3)OCCO4)c12
174 to 176	Cc1cccc(C(=O)O)c1NC(=O)COc1ccccc1
102 to 105	O=C1CCC(c2c[nH]c3cc(F)ccc23)CC1
306 to 309	CSc1n[nH]c(NC(=O)c2ccccc2O)n1
128 to 129	CC(C)(C)c1ccc(CC[C@H](O)CCCC2CCCCC2)cc1NC(=O)CC1c2ccccc2Oc2ccccc21
149 to 150	CC(C)NCCn1c(-c2ccc(O)cc2)cc2c1CCCC2
130 to 134	CCC12CCC3c4ccc(OC)cc4C(C)CC3C1CCC21OCCO1 (centres undefined)
86 to 87	O=C1C2=C(CCCC2)C(Sc2ccccc2)N1c1ccc(Cl)cc1F (centres undefined)
210 to 211	Cn1cc(Cc2cc3cccc(-c4cccc(C(=O)NCCO)c4)c3s2)cc(Cl)c1=O
237	CC1(C)CCc2c(N3CCSCC3)nc3sc4c(NCc5ccncc5)ncnc4c3c2C1
